Literature values as cited in paper PMC12042267, “Expanding the Family of Monosubstituted 15-Membered Pyridine-Based Macrocyclic Ligands for Mn(II) Complexation in the Context of MRI” (Inorganic Chemistry, 2025).
Like-named read-outs stand apart in the source and are kept apart here.

Experiments:
[1] = cited from earlier work
[2] = cited from earlier work; for r1 (relaxivity): 25 °C, 20 MHz
[3] = Zn(II), cited from earlier work
[4] = Mn(II) complex, cited from earlier work; for dissociation half-life t1/2: calculated for pH 7.4
[5] = Cu(II), cited from earlier work
[6] = cited from earlier work; for log KML / log KHML / log KML(OH): Mn(II)
[7] = cited from earlier work; remark: listed apart in the source
[8] = Ca(II), cited from earlier work

In the case of `NCCN1CCN(CC(=O)[O-])Cc2cccc(n2)CN(CC(=O)[O-])CC1.O.[Mn+2]` [[Mn(PC2A-EA)(H2O)]], the “kex^298” value [1] is listed as 4.0 ± 0.2 10^7 s^–1, the r1p298 ([2]; 298 K and 0.47 T, pH 6.0 ref 22) is listed as 2.1 mM^–1 s^–1 and the r1p298 ([2]; 298 K and 0.47 T, pH 7.4 ref 22) is listed as 3.5 mM^–1 s^–1.
For `O=C(O)CN1CCNCCN(CC(=O)O)Cc2cccc(n2)C1` [3,9-PC2A], the “log KHML” value ([3]; I = 0.15 M NaCl, 25 °C ref 21) is listed as 2.74, the “log KML” value ([3]; I = 0.15 M NaCl, 25 °C ref 21) is listed as 19.49 and the k1 ([4]; Cu(II) transmetalation ref 21) is listed as 221 ± 5 M^–1 s^–1. The k3 ([4]; Cu(II) transmetalation ref 21) was “(3.6 ± 0.7) × 10^–2 M^–1 s^–1”, the “dissociation half-life t1/2” value ([4]; Cu(II) ref 21) was 21.0 h and the “log KHML” value ([5]; I = 0.15 M NaCl, 25 °C ref 21) was 2.12. The “log KML” value ([5]; I = 0.15 M NaCl, 25 °C ref 21) was 23.58, the “log KML” value ([6]; I = 0.15 M NaCl, 25 °C ref 21) was 17.09 and the “log KHML” value ([6]; I = 0.15 M NaCl, 25 °C, log KMnHL in Table 5 ref 21) was 2.14. The pMn ([6]; pH 7.4, cMn = clig = 10^–5 M ref 21) was 8.64, the “log K1^H” value ([7]; 0.1 M KCl ref 42) was 12.50 and the “log K2^H” value ([7]; 0.1 M KCl ref 42) was 5.75. The “log K3^H” value ([7]; 0.1 M KCl ref 42) was 3.28, the “log K4^H” value ([7]; 0.1 M KCl ref 42) was 2.38 and the “log K1^H” value ([7]; I = 0.15 M NaCl, 25 °C ref 21) was 12.25. For the same compound, the “log K2^H” value ([7]; I = 0.15 M NaCl, 25 °C ref 21) was 5.97, the “log K3^H” value ([7]; I = 0.15 M NaCl, 25 °C ref 21) was 3.47 and the “log K4^H” value ([7]; I = 0.15 M NaCl, 25 °C ref 21) was 1.99. For the same compound, the “log KHML” value ([8]; I = 0.15 M NaCl, 25 °C ref 21) was 5.08 and the “log KML” value ([8]; I = 0.15 M NaCl, 25 °C ref 21) was 9.92.
In the case of `O.O=C([O-])CN1CCOCCN(CC(=O)[O-])Cc2cccc(n2)C1.[Mn+2]` [Mn(3,9-OPC2A)], the “kex^298” value [1] is given as 5.3 ± 0.4 10^7 s^–1, the “ΔH^‡” value [1] is given as 28.5 ± 1.7 kJ mol^–1 and the r1p298 ([2]; determined at pH 7.4 ref 26) is given as 3.09 mM^–1 s^–1. For the same compound, the k0 ([4]; Cu(II) transmetalation ref 26) was “(8.6 ± 1.1) × 10^–6 s^–1”.
In the case of `O=C(O)CN1CCOCCN(CC(=O)O)Cc2cccc(n2)C1` [3,9-OPC2A], the “log KHML” value ([3]; I = 0.15 M NaCl, 25 °C ref 26) is listed as 2.08, the “log KML” value ([3]; I = 0.15 M NaCl, 25 °C ref 26) is listed as 14.81 and the “log KML(OH)” value ([3]; I = 0.15 M NaCl, 25 °C ref 26) is listed as -10.95. For the same compound, the k0 ([4]; Cu(II) transmetalation ref 26) was “(8.6 ± 1.1) × 10^–6 s^–1”, the k1 ([4]; Cu(II) transmetalation ref 26) was 2.81 ± 0.07 M^–1 s^–1 and the “dissociation half-life t1/2” value ([4]; Cu(II) ref 26) was 21.9 h. The “log KHML” value ([5]; I = 0.15 M NaCl, 25 °C ref 26) was 1.92, the “log KML” value ([5]; I = 0.15 M NaCl, 25 °C ref 26) was 18.41 and the “log KML(OH)” value ([5]; I = 0.15 M NaCl, 25 °C ref 26) was -10.50. The “log KML” value ([6]; I = 0.15 M NaCl, 25 °C ref 26) was 13.03, the “log KML(OH)” value ([6]; I = 0.15 M NaCl, 25 °C ref 26) was -11.49 and the pMn ([6]; pH 7.4, cMn = clig = 10^–5 M ref 26) was 8.69. The “log K1^H” value ([7]; I = 0.15 M NaCl, 25 °C ref 26) was 7.73, the “log K2^H” value ([7]; I = 0.15 M NaCl, 25 °C ref 26) was 7.66 and the “log K3^H” value ([7]; I = 0.15 M NaCl, 25 °C ref 26) was 2.13. For the same compound, the “log KML” value ([8]; I = 0.15 M NaCl, 25 °C ref 26) was 8.27.
In the case of `O.O.O.O.O.O.[Mn+2]` [[Mn(H2O)6]^2+], the AO/ℏ [1] is listed as 33.3 10^6 rad s^–1, the “kex^298” value [1] is listed as 2.1 10^7 s^–1 and the “ΔH^‡” value [1] is listed as 32.9 kJ mol^–1. The “ΔS^‡” value [1] was “+5.7 J mol^–1K^–1”, the “Δ^2” value [1] was 5.6 10^18 s^–2 and the “τrH^298” value [1] was 30 ps. The “τv^298” value [1] was 3.3 ps, the “r1 characteristic of free hexaaqua Mn(II)” value ([2]; 1.41 T, 60 MHz, 25 °C ref 46) was 6.7 mM^–1 s^–1 and the “r1 (relaxivity)” value ([2]; 0.47 T ref 54) was 8.36/– mM^–1 s^–1.
For `O.O.[Mn+2].c1cc2nc(c1)CNCCOc1ccccc1OCCNC2` [Mn(15-pyN3O2Ph)], the AO/ℏ [1] is given as 43 10^6 rad s^–1, the “kex^298” value [1] is given as 0.64 10^7 s^–1 and the “ΔH^‡” value [1] is given as 34.0 kJ mol^–1. The “ΔS^‡” value [1] was “–1.0 J mol^–1K^–1” and the “r1 (relaxivity)” value ([2]; 0.47 T ref 29) was 5.16/– mM^–1 s^–1.
For `O=P(O)(O)CN1CCNCc2cccc(n2)CNCC1` [PC1P], the “log KHML” value ([3]; 0.1 M NMe4Cl ref 20) is given as 5.19, the “log KML” value ([3]; 0.1 M NMe4Cl ref 20) is given as 19.66 and the “log KML(OH)” value ([3]; 0.1 M NMe4Cl ref 20) is given as 12.33. The “log KHML” value ([5]; 0.1 M NMe4Cl ref 20) was 4.89, the “log KML” value ([5]; 0.1 M NMe4Cl ref 20) was 22.63 and the “log KML” value ([6]; 0.1 M NMe4Cl ref 20) was 14.06. For the same compound, the “log KML(OH)” value ([6]; 0.1 M NMe4Cl ref 20) was -11.97, the “log KHML” value ([6]; 0.1 M NMe4Cl, log KMnHL in Table 5 ref 20) was 5.35 and the pMn ([6]; pH 7.4, cMn = clig = 10^–5 M ref 20) was 8.30. The “log K1^H” value ([7]; 0.1 M NMe4Cl ref 20) was 11.84, the “log K2^H” value ([7]; 0.1 M NMe4Cl ref 20) was 9.64 and the “log K3^H” value ([7]; 0.1 M NMe4Cl ref 20) was 6.23. For the same compound, the “log K4^H” value ([7]; 0.1 M NMe4Cl ref 20) was 0.99 and the “log KML” value ([8]; 0.1 M NMe4Cl ref 20) was 6.85.
In the case of `c1cc2nc(c1)CNCCOCCOCCNC2` [15-pyN3O2], the “log KML” value ([3]; 0.1 M NMe4Cl ref 28) is listed as 8.58, the “log KML(OH)” value ([3]; 0.1 M NMe4Cl ref 28) is listed as -10.31 and the “log KML” value ([5]; 0.1 M NMe4Cl ref 28) is listed as 13.91. For the same compound, the “log KML(OH)” value ([5]; 0.1 M NMe4Cl ref 28) was -8.34, the “log KML(OH)2” value ([5]; 0.1 M NMe4Cl ref 28) was -12.57 and the “log KML” value ([6]; 0.1 M NMe4Cl ref 28) was 7.18. For the same compound, the “log KML(OH)” value ([6]; 0.1 M NMe4Cl ref 28) was -11.69, the pMn ([6]; pH 7.4, cMn = clig = 10^–5 M ref 28) was 5.28 and the “log K1^H” value ([7]; 0.1 M NMe4Cl ref 28) was 8.82. The “log K2^H” value ([7]; 0.1 M NMe4Cl ref 28) was 7.80, the “log KML” value ([8]; 0.1 M NMe4Cl ref 28) was 2.04 and the “log KML(OH)” value ([8]; 0.1 M NMe4Cl ref 28) was -11.92.
